The values that follow come from US11370775B2, “Substituted benzimidazole derivatives as D-amino acid oxidase (DAAO) inhibitors” (NATIONAL TAIWAN UNIVERSITY, priority 2016, dated 2022).

Assay [1] deals with MK-801-induced PPI deficit in C57BL/6 mice. Description: Prepulse inhibition, MK-801-induced PPI deficit. In kind it is in vivo. The settings on record: MK-801 0.2 mg/kg i.p. An excerpt:
The NMDA-receptor antagonist MK-801-induced negative or cognitive deficits in C57BL/6 mice were in a well-established drug-induced schizophrenia mouse model and as a useful pharmacological animal model to identify if the RS-D7, its analog and its prodrug improve the symptoms through the NMDA receptor.
All wild-type (WT) mice used in this study were backcrossed onto a C57BL/6J background from the Laboratory Animal Center of National Taiwan University Hospital, and all behavioral examinations were conducted in WT mice. For acclimatizing to laboratory conditions, the mice were allowed free access to food and water and were housed in groups with a 12 hours light-dark cycle in a temperature and humidity controlled room of the Psychology Department, National Taiwan University. All animals within the age of 3 months were housed individually one week before experiment testing with food and water available ad libitum. In the beginning of the experiments, the mice were handled and weighted daily at least 1 week before the behavioral experiments. The entire animal procedures were performed according to protocols approved by the Animal Care and Use Committee established by the National Taiwan University.
MK-801 was dissolved in saline and administered at a volume of 0.01 ml/g body weight. RS-D7, Drug 12083 (analog of RS-D7) and was freshly dissolved in 1% CMC to the concentration of 2 mg/ml before usage. Prodrug 28095 was freshly dissolved in NMP:HP-beta-CD:H2O (5:25:70) to the concentration of 2 mg/ml before usage. All animals were given vehicle (saline) or MK-801 (0.2 mg/kg, i.p.) 25 minutes before the behavioral experiments. Both vehicle (1% CMC or NMP:HP-beta-CD:H2O) and experimental groups (RS-D7, Drug 12083 or Prodrug 28095) were treated after 5 minutes MK-801 administration with the appropriate dose via P.O. injections (at a volume of 0.01 ml/g body weight).
For investigating the treatment effect of RS-D7 for negative and cognitive symptoms, a series of three behavioral tests (run from the first to the third week), which included open field, sucrose preference test and prepulse inhibition were performed in sequence with a 1-week interval between tests.
To assess the sensorimotor gating function, each mouse was tested with the SR-LAB startle apparatus (San Diego Instruments, San Diego, Calif., USA). The background noise was 72 dB during testing. Each session was initiated with a 5 minutes acclimatization period followed by 64 trials, consisting of pulse-alone (P-alone) trials, prepulse pulse (pp+P) trials, and no stimulation (nostim) trials. A P-alone trial was a 120 dB white noise burst of 40 msec. In the pp+P trials, the 120 dB pulse was preceded (by 100 msec) by a 20 msec of white noise prepulse burst of 78 dB (PP6), 82 dB (PP10), or 90 dB (PP18). The nostim trials consisted of background noise only. The session began and ended with a block of six presentations of the P-alone trial. Between these two blocks, the rest of the 52 trials were performed pseudorandomly and separated by intertrial intervals of 15 sec on average (varying between 10 and 20 sec). PPI was calculated as a percentage of the startle response using the formula: % PPI=100× [(P-alone score)-(pp+P score)]/(pulse-alone score), where the pulse-alone score was the average of the pulse-alone values from the in-between block of 52 trials.

Assay [2] addresses T1, DAO in SK-N-SH neuroblastoma cells (Homo sapiens, UniProt P14920).
T1 construct: endogenous in cells; host or cells: SK-N-SH neuroblastoma cells (ATCC)
Description: Cell-based DAO assay in SK-N-SH cells. More on the design: key to Relative DAO activity normalize to DMSO at Final Conc. 100 uM / Relative DAO activity normalize to DMSO at Final Conc. 10 uM: fraction of DMSO-control DAO activity (1 = DMSO). Particulars: SK-N-SH 1.25*10^5 cells/well, drug treated for 3.5 hr; for IC50: 50 mM D-serine. The procedure: The SK-N-SH neuroblastoma cell line was purchased from American Type Culture Collection (ATCC). It was cultured in MEM media (Invitrogen/GIBCO, Rockville, Md.) supplemented with 10% fetal bovine serum, 1×NEAA (Invitrogen/GIBCO) at 37° C. with 5% CO2 in a humidified atmosphere. Cells were trypsinized and plated into a black 96-well plate (NUNC No. 237108) at a density of 125,000 cells/well in 50 μl before cell-based DAO assay.
The cellular DAO activity assay was using a method modified according to the report of Brandish et al. (Brandish, P. E., et al., A cell-based ultra-high-throughput screening assay for identifying inhibitors of D-amino acid oxidase. J Biomol Screen, 2006. 11(5): p. 481-7). SK-N-SH cells were suspended in assay buffers of HANKS buffer solution (Invitrogen/GIBCO No. 14025-092) with 20 mM HEPES. D-serine of (final concentration 50 mM) was added in each well as the substrate for DAO enzyme. The Amplex Red Hydrogen Peroxide/Proxidase Assay Kit (Molecular Probes/Invitrogen, cat. A22188) was used to measure H2O2 production which diffused across the cell membrane into the assay medium after DAO reaction. After seeding cells into black 96-well plate (Nunc No. 237108, Denmark), 50 μl of SK-N-SH cells (125,000 cells/well) was mixed with 50 μl drug solution (2.5 fold of interesting final concentration) and incubate at 37° C. with 5% CO2 in a humidified atmosphere for 30 minutes. After 30 minutes later, 25 μl of a 5 fold mixture containing D-serine, horseradish peroxidase (HRP), and Amplex Red was added into wells containing 100 μl of cell-drugs mixture and incubated at 37° C. with 5% CO2 in a humidified atmosphere for 3 hours. The final concentration of DMSO is below 1%. The fluorescence signal was then detected in SpectraMax M2e microplate reader (Molecular Devices, USA) with excitation at 544 nm and emission at 590 nm. The optimized assay buffer contained a final concentration of 50 mM D-serine, 0.625 units HRP, and 50 μM Amplex Red in a 125 μl assay volume.

T1 sequence (P14920 whole entry): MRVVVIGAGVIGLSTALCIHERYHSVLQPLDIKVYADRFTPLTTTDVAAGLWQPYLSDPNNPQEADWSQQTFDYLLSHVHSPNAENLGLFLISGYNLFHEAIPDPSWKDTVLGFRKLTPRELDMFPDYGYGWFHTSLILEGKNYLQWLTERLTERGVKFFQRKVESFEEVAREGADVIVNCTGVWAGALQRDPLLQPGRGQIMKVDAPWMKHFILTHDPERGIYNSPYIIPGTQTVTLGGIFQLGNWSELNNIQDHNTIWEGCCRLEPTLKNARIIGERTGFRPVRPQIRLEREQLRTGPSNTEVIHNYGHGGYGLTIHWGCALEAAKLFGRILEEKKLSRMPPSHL

For `COc1c(C)cnc(C[S+]([O-])c2nc3ccc(O)cc3[nH]2)c1C` (centres unmarked) [RS-D7, reference compound], the “Effect on MK-801 induced PPI deficit” value in assay [1] (100 mg/kg P.O.), in assay [1] (200 mg/kg P.O.) and in assay [1] (400 mg/kg P.O.) was “significantly alleviated MK-801 induced PPI deficit” each time. Also, in assay [2], the “Relative DAO activity normalize to DMSO at Final Conc. 10 uM” value is 1.05. In addition, the “Relative DAO activity normalize to DMSO at Final Conc. 100 uM” value in assay [2] amounted to 0.69. This molecule also had an IC50 in assay [2] of 141 µM.

Consider `COc1c(C)cnc(CSc2nc3cc(C(=O)O)ccc3n2CCC2=CCCCC2)c1C` [compound 12083, 1-(2-(cyclohex-1-en-1-yl)ethyl)-2-(((4-methoxy-3,5-dimethylpyridin-2-yl)methyl)thio)-1H-benzo[d]imidazole-5-carboxylic acid], for which the “Effect on MK-801 induced PPI deficit” value in assay [1] (20 mg/kg P.O.) was “significantly alleviated MK-801 induced PPI deficit”. In assay [1] (40 mg/kg P.O.), the “Effect on MK-801 induced PPI deficit” value is “significantly alleviated MK-801 induced PPI deficit”. Further, in assay [2], the “Relative DAO activity normalize to DMSO at Final Conc. 10 uM” value amounted to 0.62, the “Relative DAO activity normalize to DMSO at Final Conc. 100 uM” value is 0.48 and 74.2 µM corresponded to half-maximal inhibition (IC50).

Usually IC50 stands for the concentration that inhibits the measured activity by half.
